Experimental data taken from ChEMBL document CHEMBL5506027, “Discovery of a Novel and Potent Cyclin-Dependent Kinase 8/19 (CDK8/19) Inhibitor for the Treatment of Cancer” (J Med Chem, 2024).
Active and inactive are the calls of the source. No cut-off for these calls is given here.

Legend:
[1] = test system: MDA-MB-468; experiment: Antitumor activity against human MDA-MB-468 cells xenografted in BALB/c nude mouse assessed as tumor growth inhibition at 3 mg/kg, po qd and measured twice a week for 3 weeks; assay type: functional, organism-based
[2] = Dose normalized AUC in mouse at 30 mg/kg, po measured upto 24 hrs by LC-MS/MS analysis; assay type: ADME, organism-based; details: in vivo
[3] = test system: Z-138; experiment: Synergistic antitumor activity against human Z138 cells xenografted in CB17 SCID mouse assessed as tumor growth inhibition at 2.5 to 5 mg/kg, po administered once daily for 21 days in presence of rituximab; assay type: functional; details: dose 2.5-5 mg/kg, time 21 day
[4] = test system: MV4-11; experiment: Potency index, ratio of RVU120 IC50 to test compound IC50 for antiproliferative activity against human MV4-11 cells; assay type: functional
[5] = AUC(0 to 24 hrs) in dog at 5 mg/kg, po measured upto 24 hrs by LC-MS/MS analysis; assay type: ADME, organism-based, Canis lupus familiaris; details: in vivo
[6] = AUC(0 to 24 hrs) in rat at 10 mg/kg, po measured upto 24 hrs by LC-MS/MS analysis; assay type: ADME, organism-based; details: in vivo
[7] = target: CDK8/Cyclin C (Homo sapiens, UniProt P49336); experiment: Displacement of tracer 236 from CDK8/cyclin C (unknown origin) preincubated for 15 mins followed by tracer addition and measured after 60 mins by FRET based lanthascreen assay; assay type: protein-complex assay
[8] = target: CDK3/Cyclin E (Homo sapiens) (UniProt P24864+Q00526); experiment: Inhibition of CDK3/cyclinE1 (unknown origin) at 1 uM by luminescence based assay relative to control; assay type: protein-complex assay
Sequence of CDK3/Cyclin E (Homo sapiens) (P24864 whole entry, looked up): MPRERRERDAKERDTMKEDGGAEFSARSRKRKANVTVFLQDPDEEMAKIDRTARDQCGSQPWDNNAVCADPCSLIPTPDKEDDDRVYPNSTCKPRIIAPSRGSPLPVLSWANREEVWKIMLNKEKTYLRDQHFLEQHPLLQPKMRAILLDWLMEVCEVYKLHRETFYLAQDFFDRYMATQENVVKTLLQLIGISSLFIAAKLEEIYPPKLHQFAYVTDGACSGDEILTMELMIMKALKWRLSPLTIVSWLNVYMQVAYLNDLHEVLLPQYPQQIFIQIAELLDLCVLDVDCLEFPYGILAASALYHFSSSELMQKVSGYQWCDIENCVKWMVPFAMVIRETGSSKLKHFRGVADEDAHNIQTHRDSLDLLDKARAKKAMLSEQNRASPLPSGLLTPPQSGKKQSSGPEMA
Sequence of CDK3/Cyclin E (Homo sapiens) (Q00526 whole entry, looked up): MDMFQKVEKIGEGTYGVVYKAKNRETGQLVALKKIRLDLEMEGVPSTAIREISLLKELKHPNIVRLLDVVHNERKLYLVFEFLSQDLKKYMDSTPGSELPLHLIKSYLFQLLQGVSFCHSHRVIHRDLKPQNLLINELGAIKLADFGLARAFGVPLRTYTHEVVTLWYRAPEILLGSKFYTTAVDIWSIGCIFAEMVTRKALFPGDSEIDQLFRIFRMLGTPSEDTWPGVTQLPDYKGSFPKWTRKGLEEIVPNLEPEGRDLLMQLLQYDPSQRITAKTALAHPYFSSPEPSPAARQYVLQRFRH

[9] = Tmax in monkey at 5 mg/kg, po measured upto 24 hrs by LC-MS/MS analysis; assay type: ADME, organism-based, Macaca mulatta; details: rhesus monkey, in vivo
[10] = test system: MV4-11; experiment: Antitumor activity against human MV4-11 cells xenografted in po dosed BALB/c nude mouse assessed as tumor growth inhibition measured twice a week for 3 weeks; assay type: functional, organism-based; details: dose 3-10 mg/kg
[11] = target: CDK6/cyclin D3 (Homo sapiens) (UniProt P30281+Q00534); experiment: Inhibition of CDK6/cyclinD3 (unknown origin) at 1 uM by luminescence based assay relative to control; assay type: protein-complex assay
[12] = Clearance in monkey at 1 mg/kg, iv measured upto 24 hrs by LC-MS/MS anlaysis; assay type: ADME, organism-based, Macaca mulatta; details: rhesus monkey, in vivo
[13] = target: CDK12/Cyclin K (Homo sapiens) (UniProt O75909+Q9NYV4); experiment: Inhibition of CDK12/cyclinK (unknown origin) at 1 uM by luminescence based assay relative to control; assay type: protein-complex assay
Sequence of CDK12/Cyclin K (Homo sapiens) (O75909 whole entry, looked up): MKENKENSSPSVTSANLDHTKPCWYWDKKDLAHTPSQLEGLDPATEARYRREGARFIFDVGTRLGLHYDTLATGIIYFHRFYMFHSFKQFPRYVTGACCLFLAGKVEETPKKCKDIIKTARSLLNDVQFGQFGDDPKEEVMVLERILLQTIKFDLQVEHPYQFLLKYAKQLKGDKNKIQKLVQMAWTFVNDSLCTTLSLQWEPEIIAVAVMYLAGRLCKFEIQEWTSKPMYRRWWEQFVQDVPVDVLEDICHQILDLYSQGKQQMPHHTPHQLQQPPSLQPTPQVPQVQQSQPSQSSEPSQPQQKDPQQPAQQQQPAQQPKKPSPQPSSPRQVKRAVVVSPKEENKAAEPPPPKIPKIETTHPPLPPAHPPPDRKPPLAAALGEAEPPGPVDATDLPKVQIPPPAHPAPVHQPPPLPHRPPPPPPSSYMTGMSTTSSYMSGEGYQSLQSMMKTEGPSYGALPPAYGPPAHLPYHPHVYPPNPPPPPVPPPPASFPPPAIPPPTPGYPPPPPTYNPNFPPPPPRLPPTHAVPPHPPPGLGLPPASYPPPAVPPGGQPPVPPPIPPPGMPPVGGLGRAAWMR
Sequence of CDK12/Cyclin K (Homo sapiens) (Q9NYV4 whole entry, looked up): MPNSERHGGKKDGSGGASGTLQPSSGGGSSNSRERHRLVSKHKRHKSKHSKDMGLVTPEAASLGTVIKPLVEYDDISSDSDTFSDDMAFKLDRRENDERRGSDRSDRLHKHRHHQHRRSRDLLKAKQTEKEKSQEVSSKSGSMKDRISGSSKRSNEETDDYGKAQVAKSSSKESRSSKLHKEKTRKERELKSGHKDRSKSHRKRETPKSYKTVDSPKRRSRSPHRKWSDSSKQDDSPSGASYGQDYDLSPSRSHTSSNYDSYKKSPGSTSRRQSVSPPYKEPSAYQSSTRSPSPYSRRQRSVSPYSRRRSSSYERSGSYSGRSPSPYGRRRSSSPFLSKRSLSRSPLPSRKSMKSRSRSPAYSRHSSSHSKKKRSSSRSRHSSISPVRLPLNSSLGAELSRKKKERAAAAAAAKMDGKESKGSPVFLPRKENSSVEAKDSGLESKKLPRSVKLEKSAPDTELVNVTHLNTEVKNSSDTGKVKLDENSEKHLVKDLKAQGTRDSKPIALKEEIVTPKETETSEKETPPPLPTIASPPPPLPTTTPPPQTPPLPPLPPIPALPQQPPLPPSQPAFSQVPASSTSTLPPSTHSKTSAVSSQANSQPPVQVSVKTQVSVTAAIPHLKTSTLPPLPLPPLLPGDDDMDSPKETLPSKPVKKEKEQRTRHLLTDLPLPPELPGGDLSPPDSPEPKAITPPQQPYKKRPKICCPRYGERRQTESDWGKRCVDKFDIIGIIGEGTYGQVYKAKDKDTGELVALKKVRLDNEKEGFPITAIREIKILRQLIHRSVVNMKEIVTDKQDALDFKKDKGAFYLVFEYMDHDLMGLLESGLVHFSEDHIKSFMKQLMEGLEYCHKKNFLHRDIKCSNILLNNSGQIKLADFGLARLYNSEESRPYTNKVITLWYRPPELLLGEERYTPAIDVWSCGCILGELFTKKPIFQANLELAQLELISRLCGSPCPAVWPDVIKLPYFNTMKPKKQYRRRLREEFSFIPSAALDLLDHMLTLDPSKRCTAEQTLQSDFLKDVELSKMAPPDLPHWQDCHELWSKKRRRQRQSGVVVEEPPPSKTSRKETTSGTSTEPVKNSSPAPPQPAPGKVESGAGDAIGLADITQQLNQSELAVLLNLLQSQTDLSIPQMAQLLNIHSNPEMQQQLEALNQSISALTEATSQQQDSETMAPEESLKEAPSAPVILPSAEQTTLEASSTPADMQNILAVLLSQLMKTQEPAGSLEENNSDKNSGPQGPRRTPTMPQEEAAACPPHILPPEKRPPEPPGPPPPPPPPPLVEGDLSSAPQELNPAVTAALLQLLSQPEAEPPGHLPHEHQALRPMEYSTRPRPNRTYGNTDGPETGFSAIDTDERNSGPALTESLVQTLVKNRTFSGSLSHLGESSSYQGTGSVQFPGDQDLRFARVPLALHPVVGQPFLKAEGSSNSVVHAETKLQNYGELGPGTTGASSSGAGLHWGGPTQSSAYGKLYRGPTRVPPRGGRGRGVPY

[14] = target: CDK9/cyclin T1 (Homo sapiens) (UniProt O60563+P50750); experiment: Inhibition of CDK9/cyclinT1 (unknown origin) at 1 uM by luminescence based assay relative to control; assay type: protein-complex assay
[15] = test system: MDA-MB-468; experiment: Synergistic antitumor activity against human MDA-MB-468 cells xenografted in BALB/c nude mouse assessed as tumor growth inhibition at 3 mg/kg, ip qd and measured twice a week for 3 weeks in presence of carboplatin; assay type: functional; details: MDA-MB-468, 504 h, read-out: TGI
[16] = target: Cyclin-dependent kinase 13/Cyclin-K (Homo sapiens) (UniProt Q14004+O75909); experiment: Inhibition of CDK13/cyclinK (unknown origin) at 1 uM by luminescence based assay relative to control; assay type: protein-complex assay
Sequence of Cyclin-dependent kinase 13/Cyclin-K (Homo sapiens) (O75909 whole entry, looked up): as the sequence (O75909 whole entry, looked up) above
Sequence of Cyclin-dependent kinase 13/Cyclin-K (Homo sapiens) (Q14004 whole entry, looked up): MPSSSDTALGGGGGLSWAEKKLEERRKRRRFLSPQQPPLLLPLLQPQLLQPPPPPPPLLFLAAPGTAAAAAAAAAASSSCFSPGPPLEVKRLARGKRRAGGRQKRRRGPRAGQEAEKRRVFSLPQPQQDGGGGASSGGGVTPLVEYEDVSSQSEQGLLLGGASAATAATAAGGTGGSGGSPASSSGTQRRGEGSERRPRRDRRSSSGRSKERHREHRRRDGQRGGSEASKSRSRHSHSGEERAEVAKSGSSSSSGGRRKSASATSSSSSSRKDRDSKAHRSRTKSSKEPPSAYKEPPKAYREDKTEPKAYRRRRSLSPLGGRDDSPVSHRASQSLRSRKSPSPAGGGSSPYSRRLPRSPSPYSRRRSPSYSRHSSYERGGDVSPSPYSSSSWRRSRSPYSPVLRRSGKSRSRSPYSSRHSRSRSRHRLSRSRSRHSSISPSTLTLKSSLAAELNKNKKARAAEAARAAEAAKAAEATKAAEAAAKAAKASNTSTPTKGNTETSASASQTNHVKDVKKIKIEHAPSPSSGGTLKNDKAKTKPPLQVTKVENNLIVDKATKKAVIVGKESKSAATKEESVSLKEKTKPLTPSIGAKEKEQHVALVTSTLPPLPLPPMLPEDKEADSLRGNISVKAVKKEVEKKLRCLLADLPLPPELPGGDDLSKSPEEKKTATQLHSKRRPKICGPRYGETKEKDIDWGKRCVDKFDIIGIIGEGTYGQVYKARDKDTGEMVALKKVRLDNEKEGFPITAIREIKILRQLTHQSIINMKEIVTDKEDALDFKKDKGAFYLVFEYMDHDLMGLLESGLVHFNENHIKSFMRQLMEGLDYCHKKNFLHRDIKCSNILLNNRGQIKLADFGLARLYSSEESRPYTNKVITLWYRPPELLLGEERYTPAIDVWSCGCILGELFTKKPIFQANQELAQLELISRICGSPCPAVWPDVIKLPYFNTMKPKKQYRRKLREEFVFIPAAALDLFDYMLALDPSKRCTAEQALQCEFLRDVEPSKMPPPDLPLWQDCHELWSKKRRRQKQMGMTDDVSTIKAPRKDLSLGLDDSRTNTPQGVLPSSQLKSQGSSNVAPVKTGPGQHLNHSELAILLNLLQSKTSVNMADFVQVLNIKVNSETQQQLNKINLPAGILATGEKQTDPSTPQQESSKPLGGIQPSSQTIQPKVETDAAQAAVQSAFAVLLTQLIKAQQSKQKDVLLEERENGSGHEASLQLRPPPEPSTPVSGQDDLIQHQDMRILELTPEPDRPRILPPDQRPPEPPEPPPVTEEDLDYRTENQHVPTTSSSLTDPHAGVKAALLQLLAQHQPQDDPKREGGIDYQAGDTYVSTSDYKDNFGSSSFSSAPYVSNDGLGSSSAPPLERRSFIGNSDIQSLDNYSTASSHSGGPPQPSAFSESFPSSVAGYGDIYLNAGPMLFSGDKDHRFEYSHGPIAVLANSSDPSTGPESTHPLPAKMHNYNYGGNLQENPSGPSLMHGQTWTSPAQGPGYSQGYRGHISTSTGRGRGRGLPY

[17] = Dose normalized AUC in rat at 10 mg/kg, po measured upto 24 hrs by LC-MS/MS analysis; assay type: ADME, organism-based; details: in vivo
[18] = Toxicity in CB17 SCID mouse xenografted with human Z138 cells assessed as change in body weight at 2.5 to 5 mg/kg, po qd for 3 weeks in presence of rituximab; assay type: organism-based; details: in vivo, 504 h, dose 2.5-5 mg/kg
[19] = test system: Mus musculus; experiment: In vivo inhibition of STAT3 phosphorylation in BALB/c nude mouse tumor xenografted with human MV4-11 cells at 10 mg/kg, po qd for 3 weeks and measured 8 to 24 hrs post last dose; assay type: functional, organism-based; details: time 22.0 day
[20] = species: Homo sapiens; experiment: Inhibition of CDK1/CyclinA2 (unknown origin) at 1 uM by luminescence based assay relative to control
[21] = Cmax in monkey at 5 mg/kg, po measured upto 24 hrs by LC-MS/MS analysis; assay type: ADME, organism-based, Macaca mulatta; details: rhesus monkey, in vivo
[22] = Tmax in rat at 10 mg/kg, po measured upto 24 hrs by LC-MS/MS analysis; assay type: ADME, organism-based; details: in vivo
[23] = Cmax in rat at 5 mg/kg, po measured upto 24 hrs by LC-MS/MS analysis; assay type: ADME, organism-based; details: in vivo
[24] = Selectivity ratio of IC50 for CDK5/p35NCK (unknown origin) to IC50 for CDK8/Cyclin C (unknown origin)
[25] = Selectivity ratio of IC50 for CDK1/CyclinA2 (unknown origin) to IC50 for CDK8/Cyclin C (unknown origin)
[26] = Cmax in mouse at 5 mg/kg, po measured upto 24 hrs by LC-MS/MS analysis; assay type: ADME, organism-based; details: in vivo
[27] = Cmax in dog at 3 mg/kg, po measured upto 24 hrs by LC-MS/MS analysis; assay type: ADME, organism-based, Canis lupus familiaris; details: in vivo
[28] = Oral bioavailability in mouse at 5 mg/kg measured upto 24 hrs by LC-MS/MS analysis; assay type: ADME, organism-based; details: in vivo
[29] = Dose normalized AUC in dog at 3 mg/kg, po measured upto 24 hrs by LC-MS/MS analysis; assay type: ADME, organism-based, Canis lupus familiaris; details: in vivo
[30] = Selectivity ratio of IC50 for CDK2/CyclinE1 (unknown origin) to IC50 for CDK8/Cyclin C (unknown origin)
[31] = Selectivity ratio of IC50 for CDK2/CyclinA2 (unknown origin) to IC50 for CDK8/Cyclin C (unknown origin)
[32] = Oral bioavailability in rat at 5 mg/kg measured upto 24 hrs by LC-MS/MS analysis; assay type: ADME, organism-based; details: in vivo

## FC(F)c1c(Br)c(Br)cc2c1nc(N1CCNCC1)n2C1CCOCC1
[1]
  Activity: inactive
[2]
  AUC/dose: 796 ng·h/mL
[3]
  TGI: 86%
[4]
  Ratio IC50: 7
[5]
  AUC(0-t) at 24 h: 5590 ng·h/mL
[6]
  AUC(0-t) at 24 h: 1900 ng·h/mL
[7]
  IC50: 2.1 nM
[8]
  inhibition: 45.4%
[9]
  Tmax: 4 h
[10]
  Activity: Dose-Dependent Effect
[11]
  inhibition: 2.33%
[12]
  clearance: 13 mL/min/kg
[13]
  inhibition: 69.6%
[14]
  inhibition: 59.3%
[15]
  inhibition in vivo at 3 mg/kg: 66%
[16]
  inhibition: 57.4%
[17]
  AUC/dose: 190 ng·h/mL
[18]
  Activity: Non-Toxic
[19]
  inhibition: Active
[20]
  inhibition: 76.2%
[21]
  Cmax: 1100 ng/mL
[22]
  Tmax: 2 h

## Cc1c(Br)c(Br)c2c3c1nc(N1CCNCC1)n3CCC2 [SEL-120 FREE BASE]
[23]
  Cmax: 12 ng/mL
[24]
  Ratio IC50: 0.1
[25]
  Ratio IC50: 1.2
[26]
  Cmax: 143 ng/mL
[27]
  Cmax: 215 ng/mL
[28]
  F: 155%
[29]
  AUC/dose: 685 ng·h/mL
[30]
  Ratio IC50: 0.1
[31]
  Ratio IC50: 0.3
[32]
  bioavailability: 20%
